# Test results reported in patent US20060216302A1, “Immunological markers” (priority 2003, published 2006).
# Ends that are not written are not given here.
# Key:
# Lewis rats = assay: Antigenicity and cross-reactivity in rats inoculated with marker-KLH conjugates, serum ELISA (Example 7); assay type: in vivo, rat; details: for Candidate Marker Antibody Reactivity RBM1 / Candidate Marker Antibody Reactivity RBM2 / Candidate Marker Antibody Reactivity RBM4 / Candidate Marker Antibody Reactivity RBM5 / Candidate Marker Antibody Reactivity RBM6 / Candidate Marker Antibody Reactivity RBM7: Table 3; for Candidate Marker Antibody Reactivity RBM1: serum (1/100) of Lewis rats inoculated s.c. with 1.0 mg marker-KLH conjugate in Freund's incomplete adjuvant, day 14-21, ELISA wells coated with RBM1; for Candidate Marker Antibody Reactivity RBM2 / Candidate Marker Antibody Reactivity RBM4 / Candidate Marker Antibody Reactivity RBM5 / Candidate Marker Antibody Reactivity RBM6 / Candidate Marker Antibody Reactivity RBM7: serum (1/100) of Lewis rats inoculated with marker-KLH conjugate; for Candidate Marker Antibody Reactivity RBM2: ELISA wells coated with RBM2; for Candidate Marker Antibody Reactivity RBM4: ELISA wells coated with RBM4; for Candidate Marker Antibody Reactivity RBM5: ELISA wells coated with RBM5; for Candidate Marker Antibody Reactivity RBM6: ELISA wells coated with RBM6; for Candidate Marker Antibody Reactivity RBM7: ELISA wells coated with RBM7; for Relative Absorbance ±SE at 405 nm, Candidate Marker RBM1 / Relative Absorbance ±SE at 405 nm, Candidate Marker RBM4 / Relative Absorbance ±SE at 405 nm, Candidate Marker RBM5 / Relative Absorbance ±SE at 405 nm, Candidate Marker RBM6: Table 4, N = 3, rats inoculated with marker-KLH conjugate, ** P < .01; for Relative Absorbance ±SE at 405 nm, Candidate Marker RBM1: ELISA against RBM1; for Relative Absorbance ±SE at 405 nm, Candidate Marker RBM4: ELISA against RBM4; for Relative Absorbance ±SE at 405 nm, Candidate Marker RBM5: ELISA against RBM5; for Relative Absorbance ±SE at 405 nm, Candidate Marker RBM6: ELISA against RBM6; for Cross-reactivity among the candidate markers: text summary of Table 3, rat sera after marker-KLH inoculation
# human sera = assay: ELISA cross-reactivity of candidate markers with human sera (Example 9); details: human serum diluted 1/1000, goat anti-human-HRP, non-specific binding subtracted
# Procedure: Four samples of human sera were obtained with appropriate consent. 20 The frozen samples of cell-free sera were thawed and diluted to 1/1000 in phosphate buffered saline at pH 7.0. Aliquots (100 ul) of these diluted antisera were added to ELISA plates pre-adsorbed with the biomarkers as described in Table 1. A goat anti-human-HRP secondary antibody was used to quantitate the amount of antibody bound to the various marker peptides. Non-specific binding (determined by plating antisera onto PVA coated wells) was subtracted from the readings of the individual marker wells.
# rats = assay: Antigenicity in rats inoculated with free marker peptides, serum ELISA (Example 8); assay type: in vivo, rat; details: Table 5; for Candidate Marker Antibody Reactivity RBM1: rats inoculated with 1 mg free peptide (not KLH-conjugated) in Freund's incomplete adjuvant, ELISA against RBM1; for Candidate Marker Antibody Reactivity RBM2 / Candidate Marker Antibody Reactivity RBM3 / Candidate Marker Antibody Reactivity RBM4 / Candidate Marker Antibody Reactivity RBM5 / Candidate Marker Antibody Reactivity RBM6 / Candidate Marker Antibody Reactivity RBM7: rats inoculated with free peptide; for Candidate Marker Antibody Reactivity RBM2: ELISA against RBM2; for Candidate Marker Antibody Reactivity RBM3: ELISA against RBM3; for Candidate Marker Antibody Reactivity RBM4: ELISA against RBM4; for Candidate Marker Antibody Reactivity RBM5: ELISA against RBM5; for Candidate Marker Antibody Reactivity RBM6: ELISA against RBM6; for Candidate Marker Antibody Reactivity RBM7: ELISA against RBM7; for Antigenicity (measurable antibody response) of free marker peptide / Interference and cross-reaction with other marker candidates: rats; for Antigenicity (measurable antibody response) of free marker peptide: free peptide not conjugated to KLH; for Interference and cross-reaction with other marker candidates: free peptide
# [1] = tested on: polyclonal sera against a range of infectious agents and hormones; assay: ELISA cross-reactivity screen, whole panel of antisera; assay type: binding; details: whole panel of 12 antisera
Substance,Candidate Marker Antibody Reactivity RBM1 (Lewis rats),Candidate Marker Antibody Reactivity RBM2 (Lewis rats),Candidate Marker Antibody Reactivity RBM4 (Lewis rats),Candidate Marker Antibody Reactivity RBM5 (Lewis rats),"Relative Absorbance ±SE at 405 nm, Candidate Marker RBM1 (Lewis rats)","Relative Absorbance ±SE at 405 nm, Candidate Marker RBM4 (Lewis rats)","Relative Absorbance ±SE at 405 nm, Candidate Marker RBM5 (Lewis rats)","Relative Absorbance ±SE at 405 nm, Candidate Marker RBM6 (Lewis rats)","Candidate Marker Antibody Reactivity, Serum Sample 1 (human sera)","Candidate Marker Antibody Reactivity, Serum Sample 2 (human sera)","Candidate Marker Antibody Reactivity, Serum Sample 3 (human sera)","Candidate Marker Antibody Reactivity, Serum Sample 4 (human sera)",Candidate Marker Antibody Reactivity RBM1 (rats),Candidate Marker Antibody Reactivity RBM2 (rats),Candidate Marker Antibody Reactivity RBM3 (rats),Candidate Marker Antibody Reactivity RBM4 (rats),Candidate Marker Antibody Reactivity RBM5 (rats),Candidate Marker Antibody Reactivity RBM6 (rats),Candidate Marker Antibody Reactivity RBM7 (rats),Antigenicity (measurable antibody response) of free marker peptide (rats),other results
"EGVYVPV [RBM5, peptide derived from the 5→3 reading of the cDNA encoding angiotensin II; T3 prints Glu-Gly-Val-Tyr-Val-His-Pro-Val]",−.018,.068,−.231,.101,.57 ± .25,.15 ± .07,1.5 ± .44**,.50 ± .02,.22,.21,−.02,−.01,,,,,,,,,"Candidate Marker Antibody Reactivity RBM6 (Lewis rats): .006; Candidate Marker Antibody Reactivity RBM7 (Lewis rats): −.058; Cross-reactivity among the candidate markers (Lewis rats): cross-react weakly, but consistently"
HRNYFHRNYF [RBM2],.034,.219,−.037,.041,,,,,.26,.05,.27,−.01,−.02,3.34,−.07,−.01,.05,−.23,−.05,sufficiently antigenic to produce a measurable and consistent antibody response,"Candidate Marker Antibody Reactivity RBM6 (Lewis rats): −.006; Candidate Marker Antibody Reactivity RBM7 (Lewis rats): .002; Cross-reactivity among the candidate markers (Lewis rats): cross-react weakly, but consistently; Interference and cross-reaction with other marker candidates (rats): did not interfere with each other's immune responses nor cross-react with other marker candidates"
HWRWRMRMHWRWRMRM [RBM6],,,,,.12 ± .03,.02 ± .04,−07 ± .15,.84 ± .13**,.22,.24,−.09,−.03,−.07,.39,.02,−.06,.19,−.01,.12,failed to produce measurable immunity,
"RLAHMYVGKT [RBM4, antisense peptide from angiotensin II complementary DNA, 3→5 direction; KLH conjugate for inoculation]",−.009,.020,.079,.003,.21 ± .06,2.26 ± .40**,.24 ± .23,.32 ± .07,.08,.20,−.16,−.02,,,,,,,,,Candidate Marker Antibody Reactivity RBM6 (Lewis rats): −.035; Candidate Marker Antibody Reactivity RBM7 (Lewis rats): −.030; Recognition by any antiserum tested [1]: did not cross-react
WFYMYFWFYMYF [RBM3],,,,,,,,,.07,.05,−.07,−.01,,,,,,,,,
WPHDMCWP [RBM7],,,,,,,,,−.11,.00,.04,−.02,−.10,.22,−.06,−.12,.06,−.10,.63,sufficiently antigenic to produce a measurable and consistent antibody response,Interference and cross-reaction with other marker candidates (rats): did not interfere with each other's immune responses nor cross-react with other marker candidates
YFMYRRYFMYRR [RBM1],,,,,.55 ± .15**,−.11 ± .14,.11 ± .05,.05 ± .07,.16,.01,.08,.01,.00,.20,−.05,−.04,.1,−.10,.14,failed to produce measurable immunity,
